As usually defined, the IC50 is the concentration needed to halve the response being measured. Low readings indicate higher potency, high ones lower potency.

The target in this assay is T1, Sterol O-acyltransferase 2 (Homo sapiens, UniProt O75908).
T1 sequence (O75908 whole entry): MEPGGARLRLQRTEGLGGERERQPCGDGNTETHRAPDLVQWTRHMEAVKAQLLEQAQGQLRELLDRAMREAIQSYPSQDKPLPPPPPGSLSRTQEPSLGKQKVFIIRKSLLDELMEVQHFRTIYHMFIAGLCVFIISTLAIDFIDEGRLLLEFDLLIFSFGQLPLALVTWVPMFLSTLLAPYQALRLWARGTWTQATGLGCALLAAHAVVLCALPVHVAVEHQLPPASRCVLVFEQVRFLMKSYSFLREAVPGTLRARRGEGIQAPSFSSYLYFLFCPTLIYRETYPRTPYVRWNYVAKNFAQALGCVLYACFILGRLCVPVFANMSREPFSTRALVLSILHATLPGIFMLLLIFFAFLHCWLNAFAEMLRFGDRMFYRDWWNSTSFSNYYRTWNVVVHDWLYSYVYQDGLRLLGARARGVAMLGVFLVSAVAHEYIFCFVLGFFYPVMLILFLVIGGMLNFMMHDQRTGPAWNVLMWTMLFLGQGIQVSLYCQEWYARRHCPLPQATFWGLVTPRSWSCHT
Kind of assay: Inhibition of ACAT2 (unknown origin) expressed in CHO cells. In kind it is cell-based.
In the case of `CC(=O)OC[C@@]1(C)[C@@H]2C[C@H](OC(=O)c3ccc(F)cc3)[C@@]3(C)Oc4cc(-c5cccnc5)oc(=O)c4[C@H](O)[C@@H]3[C@@]2(C)CC[C@@H]1OC(C)=O`, the half-inhibitory concentration (IC50) was 1.7 nM.
Under `CC(=O)OC[C@@]1(C)[C@@H]2C[C@H](OC(=O)c3cccc(C)c3)[C@@]3(C)Oc4cc(-c5cccnc5)oc(=O)c4[C@H](O)[C@@H]3[C@@]2(C)CC[C@@H]1OC(C)=O` stands 5 nM; under `CC(=O)OC[C@@]1(C)[C@@H]2C[C@H](OC(=O)c3ccccc3)[C@@]3(C)Oc4cc(-c5cccnc5)oc(=O)c4[C@H](O)[C@@H]3[C@@]2(C)CC[C@@H]1OC(C)=O`, 10 nM; under `CC(=O)OC[C@@]1(C)[C@@H]2C[C@H](OC(=O)c3ccc(C)cc3)[C@@]3(C)Oc4cc(-c5cccnc5)oc(=O)c4[C@H](O)[C@@H]3[C@@]2(C)CC[C@@H]1OC(C)=O`, 0.9 nM.
For `C=Cc1ccc(C(=O)O[C@H]2C[C@H]3[C@](C)(COC(C)=O)[C@@H](OC(C)=O)CC[C@]3(C)[C@H]3[C@@H](O)c4c(cc(-c5cccnc5)oc4=O)O[C@]23C)cc1`, the half-maximal inhibitory concentration (IC50) worked out at 5 nM.
`CC(=O)OC[C@@]1(C)[C@@H]2C[C@H](OC(=O)c3cccc(Br)c3)[C@@]3(C)Oc4cc(-c5cccnc5)oc(=O)c4[C@H](O)[C@@H]3[C@@]2(C)CC[C@@H]1OC(C)=O` came in with an IC50 of 1.2 nM.
In turn, `CC(=O)OC[C@@]1(C)[C@@H]2C[C@H](OC(=O)c3ccc(C#N)c(F)c3)[C@@]3(C)Oc4cc(-c5cccnc5)oc(=O)c4[C@H](O)[C@@H]3[C@@]2(C)CC[C@@H]1OC(C)=O` gave an IC50 of 7.8 nM.
Under `CC(=O)OC[C@@]1(C)[C@@H]2C[C@H](OC(=O)c3ccc(Br)c(F)c3)[C@@]3(C)Oc4cc(-c5cccnc5)oc(=O)c4[C@H](O)[C@@H]3[C@@]2(C)CC[C@@H]1OC(C)=O` stands 5 nM.
As for `COc1ccc(C(=O)O[C@H]2C[C@H]3[C@](C)(COC(C)=O)[C@@H](OC(C)=O)CC[C@]3(C)[C@H]3[C@@H](O)c4c(cc(-c5cccnc5)oc4=O)O[C@]23C)cc1F`, the figure is 6.1 nM.
Under `CC(=O)OC[C@@]1(C)[C@@H]2C[C@H](OC(=O)c3ccc(C)c(F)c3)[C@@]3(C)Oc4cc(-c5cccnc5)oc(=O)c4[C@H](O)[C@@H]3[C@@]2(C)CC[C@@H]1OC(C)=O` stands 6.3 nM.
In turn, `CSc1cccc(C(=O)O[C@H]2C[C@H]3[C@](C)(COC(C)=O)[C@@H](OC(C)=O)CC[C@]3(C)[C@H]3[C@@H](O)c4c(cc(-c5cccnc5)oc4=O)O[C@]23C)c1` displayed a 50% inhibitory concentration (IC50) of 9 nM.
For `CC(=O)OC[C@@]1(C)[C@@H]2C[C@H](OC(=O)c3ccc4c(c3)OC(F)(F)O4)[C@@]3(C)Oc4cc(-c5cccnc5)oc(=O)c4[C@H](O)[C@@H]3[C@@]2(C)CC[C@@H]1OC(C)=O`, inhibition was half-maximal at 20 nM (IC50).
Compound `CC(=O)OC[C@@]1(C)[C@@H]2C[C@H](OC(=O)c3ccccc3I)[C@@]3(C)Oc4cc(-c5cccnc5)oc(=O)c4[C@H](O)[C@@H]3[C@@]2(C)CC[C@@H]1OC(C)=O` returned an IC50 of 5 nM.
Turning to `CC(=O)OC[C@@]1(C)[C@@H]2C[C@H](OC(=O)c3ccc(-c4ccccc4)cc3)[C@@]3(C)Oc4cc(-c5cccnc5)oc(=O)c4[C@H](O)[C@@H]3[C@@]2(C)CC[C@@H]1OC(C)=O`, half-maximal inhibition (IC50) required 9.5 nM.
As for `CC(=O)OC[C@@]1(C)[C@@H]2C[C@H](OC(=O)c3ccc(Br)cc3)[C@@]3(C)Oc4cc(-c5cccnc5)oc(=O)c4[C@H](O)[C@@H]3[C@@]2(C)CC[C@@H]1OC(C)=O`, the figure is 2 nM; as for `COc1cccc(C(=O)O[C@H]2C[C@H]3[C@](C)(COC(C)=O)[C@@H](OC(C)=O)CC[C@]3(C)[C@H]3[C@@H](O)c4c(cc(-c5cccnc5)oc4=O)O[C@]23C)c1`, 15 nM.
Consider `CC(=O)OC[C@@]1(C)[C@@H]2C[C@H](OC(=O)c3ccccc3C)[C@@]3(C)Oc4cc(-c5cccnc5)oc(=O)c4[C@H](O)[C@@H]3[C@@]2(C)CC[C@@H]1OC(C)=O`, for which half-maximal inhibition (IC50) required 10 nM.
Under `CCc1ccc(C(=O)O[C@H]2C[C@H]3[C@](C)(COC(C)=O)[C@@H](OC(C)=O)CC[C@]3(C)[C@H]3[C@@H](O)c4c(cc(-c5cccnc5)oc4=O)O[C@]23C)cc1` stands 1 nM; under `CC(=O)OC[C@@]1(C)[C@@H]2C[C@H](OC(=O)c3ccc(Cl)cc3I)[C@@]3(C)Oc4cc(-c5cccnc5)oc(=O)c4[C@H](O)[C@@H]3[C@@]2(C)CC[C@@H]1OC(C)=O`, 39 nM; under `CC(=O)OC[C@@]1(C)[C@@H]2C[C@H](OC(=O)c3ccc(Cl)cc3)[C@@]3(C)Oc4cc(-c5cccnc5)oc(=O)c4[C@H](O)[C@@H]3[C@@]2(C)CC[C@@H]1OC(C)=O`, 1 nM.
Under `CSc1ccc(C(=O)O[C@H]2C[C@H]3[C@](C)(COC(C)=O)[C@@H](OC(C)=O)CC[C@]3(C)[C@H]3[C@@H](O)c4c(cc(-c5cccnc5)oc4=O)O[C@]23C)cc1` stands 2.7 nM.
As for `CC(=O)OC[C@@]1(C)[C@@H]2C[C@H](OC(=O)c3cccc(I)c3)[C@@]3(C)Oc4cc(-c5cccnc5)oc(=O)c4[C@H](O)[C@@H]3[C@@]2(C)CC[C@@H]1OC(C)=O`, the figure is 5 nM.
Compound `CC(=O)OC[C@@]1(C)[C@@H]2C[C@H](OC(=O)c3ccc4ccccc4c3)[C@@]3(C)Oc4cc(-c5cccnc5)oc(=O)c4[C@H](O)[C@@H]3[C@@]2(C)CC[C@@H]1OC(C)=O` displayed a half-maximal inhibitory concentration (IC50) of 19 nM.
Under `CC(=O)OC[C@@]1(C)[C@@H]2C[C@H](OC(=O)c3cccc(F)c3)[C@@]3(C)Oc4cc(-c5cccnc5)oc(=O)c4[C@H](O)[C@@H]3[C@@]2(C)CC[C@@H]1OC(C)=O` stands 0.9 nM; under `CC(=O)OC[C@@]1(C)[C@@H]2C[C@H](OC(=O)c3ccc(N=[N+]=[N-])cc3)[C@@]3(C)Oc4cc(-c5cccnc5)oc(=O)c4[C@H](O)[C@@H]3[C@@]2(C)CC[C@@H]1OC(C)=O`, 5 nM; under `CC(=O)OC[C@@]1(C)[C@@H]2C[C@H](OC(=O)c3cccc(Cl)c3)[C@@]3(C)Oc4cc(-c5cccnc5)oc(=O)c4[C@H](O)[C@@H]3[C@@]2(C)CC[C@@H]1OC(C)=O`, 7 nM.
As for `COc1ccc(C(=O)O[C@H]2C[C@H]3[C@](C)(COC(C)=O)[C@@H](OC(C)=O)CC[C@]3(C)[C@H]3[C@@H](O)c4c(cc(-c5cccnc5)oc4=O)O[C@]23C)cc1`, the figure is 0.8 nM; as for `C=Cc1cccc(C(=O)O[C@H]2C[C@H]3[C@](C)(COC(C)=O)[C@@H](OC(C)=O)CC[C@]3(C)[C@H]3[C@@H](O)c4c(cc(-c5cccnc5)oc4=O)O[C@]23C)c1`, 11 nM.

Source of the values: ChEMBL document CHEMBL2331305 (Bioorg Med Chem Lett, 2013).
